Results: US12343326B2, “Psychoactive medicines and their use for treating psychiatric and neurological conditions and disorders” (Transcend Therapeutics, Inc., priority 2021, dated 2025)

What was measured:
Experiment in all cases: β-arrestin based GPCR screen (PathHunter / GPCRmax), antagonist mode
168 GPCRs [1] = target: 168 GPCRs (Homo sapiens, UniProt O00574)
168 GPCRs [2] = target: 168 GPCRs (Homo sapiens, UniProt O95136)
168 GPCRs [3] = target: 168 GPCRs (Homo sapiens, UniProt O95977)
168 GPCRs [4] = target: 168 GPCRs (Homo sapiens, UniProt P20309); conditions: CHRM3, Antagonist
168 GPCRs [5] = target: 168 GPCRs (Homo sapiens, UniProt P21728)
168 GPCRs [6] = target: 168 GPCRs (Homo sapiens, UniProt P21917)
168 GPCRs [7] = target: T1, 168 GPCRs (Homo sapiens, UniProt P24530); conditions: EDNRB
T1 sequence (P24530 27-442): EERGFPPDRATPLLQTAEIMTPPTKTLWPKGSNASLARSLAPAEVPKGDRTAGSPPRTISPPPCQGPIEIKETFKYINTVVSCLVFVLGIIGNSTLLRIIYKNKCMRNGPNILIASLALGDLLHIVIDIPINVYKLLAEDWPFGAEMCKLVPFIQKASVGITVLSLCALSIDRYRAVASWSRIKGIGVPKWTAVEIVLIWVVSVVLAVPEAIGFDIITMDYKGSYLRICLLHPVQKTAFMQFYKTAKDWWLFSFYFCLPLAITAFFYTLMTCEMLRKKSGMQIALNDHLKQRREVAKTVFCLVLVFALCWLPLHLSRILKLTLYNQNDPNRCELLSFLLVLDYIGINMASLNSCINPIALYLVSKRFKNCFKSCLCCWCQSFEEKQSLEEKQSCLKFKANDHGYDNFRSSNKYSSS

168 GPCRs [8] = target: 168 GPCRs (Homo sapiens, UniProt P25103)
168 GPCRs [9] = target: 168 GPCRs (Homo sapiens, UniProt P29371)
168 GPCRs [10] = target: 168 GPCRs (Homo sapiens, UniProt P41145)
168 GPCRs [11] = target: 168 GPCRs (Homo sapiens, UniProt P41587)
168 GPCRs [12] = target: 168 GPCRs (Homo sapiens, UniProt P41968); conditions: MC3R
168 GPCRs [13] = target: 168 GPCRs (Homo sapiens, UniProt P46663); conditions: BDKRB1, Antagonist
168 GPCRs [14] = target: 168 GPCRs (Homo sapiens, UniProt P47872); conditions: SCTR
168 GPCRs [15] = target: 168 GPCRs (Homo sapiens, UniProt P47898); conditions: HTR5A
168 GPCRs [16] = target: 168 GPCRs (Homo sapiens, UniProt P48546); conditions: GIPR
168 GPCRs [17] = target: 168 GPCRs (Homo sapiens, UniProt P49238)
168 GPCRs [18] = target: 168 GPCRs (Homo sapiens, UniProt Q96LB2)
168 GPCRs [19] = target: 168 GPCRs (Homo sapiens, UniProt Q9H1C0)
168 GPCRs [20] = target: 168 GPCRs (Homo sapiens, UniProt Q9Y5N1)
Chain of 168 GPCRs (Homo sapiens, UniProt Q9Y5N1) (Q9Y5N1 whole entry): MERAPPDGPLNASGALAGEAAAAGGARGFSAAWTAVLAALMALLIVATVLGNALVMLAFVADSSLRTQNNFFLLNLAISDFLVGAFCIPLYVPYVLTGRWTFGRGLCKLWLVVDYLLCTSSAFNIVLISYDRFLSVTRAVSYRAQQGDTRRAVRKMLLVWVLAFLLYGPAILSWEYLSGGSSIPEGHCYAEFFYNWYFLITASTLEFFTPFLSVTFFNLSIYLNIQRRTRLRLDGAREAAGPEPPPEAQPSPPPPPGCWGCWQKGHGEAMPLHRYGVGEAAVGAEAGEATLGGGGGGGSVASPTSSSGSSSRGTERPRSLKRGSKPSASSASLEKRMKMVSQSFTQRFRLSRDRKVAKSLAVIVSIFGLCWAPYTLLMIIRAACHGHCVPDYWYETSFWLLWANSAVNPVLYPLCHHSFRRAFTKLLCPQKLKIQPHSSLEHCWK

Chain of 168 GPCRs (Homo sapiens, UniProt P48546) (P48546 22-466): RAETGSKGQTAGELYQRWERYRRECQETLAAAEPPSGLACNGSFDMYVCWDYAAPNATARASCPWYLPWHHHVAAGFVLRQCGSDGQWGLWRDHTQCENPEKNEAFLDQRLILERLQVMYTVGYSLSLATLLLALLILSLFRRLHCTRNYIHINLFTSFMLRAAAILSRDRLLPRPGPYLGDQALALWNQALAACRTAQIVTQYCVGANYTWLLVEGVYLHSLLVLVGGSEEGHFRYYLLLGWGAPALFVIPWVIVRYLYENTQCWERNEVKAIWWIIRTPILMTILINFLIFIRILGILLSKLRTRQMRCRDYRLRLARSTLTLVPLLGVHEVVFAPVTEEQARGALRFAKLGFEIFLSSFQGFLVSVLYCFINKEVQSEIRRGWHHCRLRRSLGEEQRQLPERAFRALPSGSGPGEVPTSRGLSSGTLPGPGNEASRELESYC
Chain of 168 GPCRs (Homo sapiens, UniProt P25103) (P25103 whole entry): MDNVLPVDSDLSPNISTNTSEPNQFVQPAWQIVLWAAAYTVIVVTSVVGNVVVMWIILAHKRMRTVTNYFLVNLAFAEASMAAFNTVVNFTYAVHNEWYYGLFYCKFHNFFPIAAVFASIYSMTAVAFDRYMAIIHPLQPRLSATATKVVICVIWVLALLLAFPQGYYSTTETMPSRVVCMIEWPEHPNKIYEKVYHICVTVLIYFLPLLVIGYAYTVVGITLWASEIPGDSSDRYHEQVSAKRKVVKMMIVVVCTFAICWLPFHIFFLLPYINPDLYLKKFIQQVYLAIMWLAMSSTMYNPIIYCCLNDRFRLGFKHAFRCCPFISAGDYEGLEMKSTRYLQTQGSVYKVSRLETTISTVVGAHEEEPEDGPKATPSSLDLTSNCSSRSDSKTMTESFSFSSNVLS
Chain of 168 GPCRs (Homo sapiens, UniProt P47872) (P47872 23-440): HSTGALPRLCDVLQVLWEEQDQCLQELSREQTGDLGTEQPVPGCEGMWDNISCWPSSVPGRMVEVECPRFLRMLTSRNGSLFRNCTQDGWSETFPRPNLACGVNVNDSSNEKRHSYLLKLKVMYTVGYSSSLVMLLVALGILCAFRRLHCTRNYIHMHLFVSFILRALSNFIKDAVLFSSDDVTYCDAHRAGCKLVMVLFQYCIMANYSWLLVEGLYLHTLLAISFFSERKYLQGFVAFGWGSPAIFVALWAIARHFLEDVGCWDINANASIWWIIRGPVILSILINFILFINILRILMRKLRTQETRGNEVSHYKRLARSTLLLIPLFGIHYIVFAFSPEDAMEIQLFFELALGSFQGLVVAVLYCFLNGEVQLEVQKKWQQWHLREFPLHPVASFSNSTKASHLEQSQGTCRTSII
Chain of 168 GPCRs (Homo sapiens, UniProt P41587) (P41587 24-438): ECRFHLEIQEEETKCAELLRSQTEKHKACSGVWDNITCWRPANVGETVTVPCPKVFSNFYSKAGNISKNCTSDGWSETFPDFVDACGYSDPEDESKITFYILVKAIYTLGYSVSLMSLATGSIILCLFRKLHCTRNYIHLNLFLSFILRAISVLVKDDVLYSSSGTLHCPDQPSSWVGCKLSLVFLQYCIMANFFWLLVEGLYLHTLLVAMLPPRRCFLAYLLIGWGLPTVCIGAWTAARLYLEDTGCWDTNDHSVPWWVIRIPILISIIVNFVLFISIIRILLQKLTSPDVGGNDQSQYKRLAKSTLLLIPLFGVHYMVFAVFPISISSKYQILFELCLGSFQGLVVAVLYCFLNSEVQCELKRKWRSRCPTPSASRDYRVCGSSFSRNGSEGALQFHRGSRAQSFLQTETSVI
Chain of 168 GPCRs (Homo sapiens, UniProt P49238) (P49238 whole entry): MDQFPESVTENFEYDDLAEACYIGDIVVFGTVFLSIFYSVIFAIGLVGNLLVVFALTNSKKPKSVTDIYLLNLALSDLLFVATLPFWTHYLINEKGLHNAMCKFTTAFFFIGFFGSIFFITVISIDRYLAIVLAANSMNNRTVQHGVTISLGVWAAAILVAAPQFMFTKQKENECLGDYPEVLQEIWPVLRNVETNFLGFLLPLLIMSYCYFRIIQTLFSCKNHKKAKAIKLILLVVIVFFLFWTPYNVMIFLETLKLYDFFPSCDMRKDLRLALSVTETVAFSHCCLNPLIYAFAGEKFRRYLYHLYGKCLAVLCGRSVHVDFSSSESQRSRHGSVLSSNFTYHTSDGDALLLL
Chain of 168 GPCRs (Homo sapiens, UniProt Q9H1C0) (Q9H1C0 whole entry): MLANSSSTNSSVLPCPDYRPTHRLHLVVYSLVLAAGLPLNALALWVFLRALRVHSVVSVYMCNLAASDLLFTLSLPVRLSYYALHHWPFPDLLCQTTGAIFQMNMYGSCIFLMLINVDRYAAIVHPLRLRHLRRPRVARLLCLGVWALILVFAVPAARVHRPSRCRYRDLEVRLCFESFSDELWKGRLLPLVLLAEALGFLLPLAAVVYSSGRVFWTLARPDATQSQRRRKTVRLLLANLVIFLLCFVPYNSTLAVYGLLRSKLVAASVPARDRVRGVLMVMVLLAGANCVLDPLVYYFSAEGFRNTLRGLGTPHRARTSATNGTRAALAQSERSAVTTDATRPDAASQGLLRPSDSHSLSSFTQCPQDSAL
Chain of 168 GPCRs (Homo sapiens, UniProt P41145) (P41145 whole entry): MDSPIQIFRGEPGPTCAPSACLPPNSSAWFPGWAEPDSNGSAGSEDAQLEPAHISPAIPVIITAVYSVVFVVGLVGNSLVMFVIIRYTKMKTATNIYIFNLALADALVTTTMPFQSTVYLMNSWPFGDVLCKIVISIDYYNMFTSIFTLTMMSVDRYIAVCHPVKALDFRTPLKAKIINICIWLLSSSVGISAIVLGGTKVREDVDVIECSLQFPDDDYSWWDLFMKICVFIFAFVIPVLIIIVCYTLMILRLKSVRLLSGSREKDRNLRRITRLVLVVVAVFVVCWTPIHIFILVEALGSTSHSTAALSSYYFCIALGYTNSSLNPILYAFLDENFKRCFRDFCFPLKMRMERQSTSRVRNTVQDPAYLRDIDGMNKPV
Chain of 168 GPCRs (Homo sapiens, UniProt P41968) (P41968 whole entry): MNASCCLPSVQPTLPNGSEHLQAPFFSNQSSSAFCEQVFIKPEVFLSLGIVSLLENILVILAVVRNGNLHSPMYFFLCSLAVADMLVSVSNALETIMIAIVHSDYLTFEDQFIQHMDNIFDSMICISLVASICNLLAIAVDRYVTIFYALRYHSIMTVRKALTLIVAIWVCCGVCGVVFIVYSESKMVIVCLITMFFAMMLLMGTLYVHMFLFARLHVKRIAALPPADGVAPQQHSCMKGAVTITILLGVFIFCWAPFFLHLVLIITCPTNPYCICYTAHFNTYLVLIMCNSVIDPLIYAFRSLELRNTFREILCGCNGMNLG
Chain of 168 GPCRs (Homo sapiens, UniProt P47898) (P47898 whole entry): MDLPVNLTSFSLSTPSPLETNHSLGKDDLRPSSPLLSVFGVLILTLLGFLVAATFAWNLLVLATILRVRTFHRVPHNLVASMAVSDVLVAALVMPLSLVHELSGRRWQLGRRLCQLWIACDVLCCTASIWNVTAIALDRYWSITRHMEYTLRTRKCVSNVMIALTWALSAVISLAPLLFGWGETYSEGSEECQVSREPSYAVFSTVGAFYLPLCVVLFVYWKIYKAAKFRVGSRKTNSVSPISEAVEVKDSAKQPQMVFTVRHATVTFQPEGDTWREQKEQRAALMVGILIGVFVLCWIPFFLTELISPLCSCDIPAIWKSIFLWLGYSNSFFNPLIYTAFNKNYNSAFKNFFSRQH
Chain of 168 GPCRs (Homo sapiens, UniProt Q96LB2) (Q96LB2 whole entry): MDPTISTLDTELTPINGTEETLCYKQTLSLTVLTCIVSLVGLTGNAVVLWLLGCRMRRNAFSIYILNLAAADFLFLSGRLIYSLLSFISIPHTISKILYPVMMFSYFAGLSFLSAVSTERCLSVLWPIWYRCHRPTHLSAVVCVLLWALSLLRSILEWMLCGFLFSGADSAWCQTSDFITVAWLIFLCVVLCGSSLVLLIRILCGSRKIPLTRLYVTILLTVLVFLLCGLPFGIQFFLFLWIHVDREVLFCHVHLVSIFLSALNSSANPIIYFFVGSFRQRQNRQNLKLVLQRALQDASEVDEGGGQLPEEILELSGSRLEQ
Chain of 168 GPCRs (Homo sapiens, UniProt O95136) (O95136 whole entry): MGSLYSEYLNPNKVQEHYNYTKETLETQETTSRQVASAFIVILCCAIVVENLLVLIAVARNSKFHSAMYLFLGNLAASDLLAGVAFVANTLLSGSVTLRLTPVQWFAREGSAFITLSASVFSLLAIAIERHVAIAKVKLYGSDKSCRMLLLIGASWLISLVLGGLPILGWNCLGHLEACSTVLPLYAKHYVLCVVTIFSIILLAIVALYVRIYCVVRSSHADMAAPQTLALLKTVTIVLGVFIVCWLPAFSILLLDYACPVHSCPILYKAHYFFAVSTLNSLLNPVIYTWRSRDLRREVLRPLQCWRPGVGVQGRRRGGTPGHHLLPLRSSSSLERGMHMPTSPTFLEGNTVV

Structure (SMILES): CNC(C)C(=O)c1ccc2c(c1)OCO2 (stereo not shown) [methylone, 3,4-methylenedioxy-N-methylcathinone]
- activity at 10 µM (168 GPCRs [1]; CXCR6, Antagonist mode, 10 uM): 12.6%
- activity at 1 µM (168 GPCRs [1]; CXCR6, Antagonist, 1 uM): 27.2%
- activity at 10 µM (168 GPCRs [2]; EDG5, Antagonist mode, 10 uM): -6.3%
- activity at 1 µM (168 GPCRs [2]; EDG5, Antagonist, 1 uM): -3.4%
- activity at 10 µM (168 GPCRs [3]; EDG6, Antagonist mode, 10 uM): 7.8%
- activity at 1 µM (168 GPCRs [3]; EDG6, Antagonist, 1 uM): 13.2%
- activity at 1 µM (168 GPCRs [4]; 1 uM): -5.5%
- activity at 10 µM (168 GPCRs [4]; 10 uM): 14.6%
- activity at 10 µM (168 GPCRs [5]; DRD1, Antagonist mode, 10 uM): 7.8%
- activity at 1 µM (168 GPCRs [5]; DRD1, Antagonist, 1 uM): 6%
- activity at 10 µM (168 GPCRs [6]; DRD4, Antagonist mode, 10 uM): 12.2%
- activity at 1 µM (168 GPCRs [6]; DRD4, Antagonist, 1 uM): 8.4%
- activity at 10 µM (168 GPCRs [7]; Antagonist mode, 10 uM): 10.9%
- activity at 1 µM (168 GPCRs [7]; Antagonist, 1 uM): 17.5%
- activity at 10 µM (168 GPCRs [8]; TACR1, Antagonist mode, 10 uM): 8.9%
- activity at 1 µM (168 GPCRs [8]; TACR1, Antagonist, 1 uM): 15.2%
- activity at 10 µM (168 GPCRs [9]; TACR3, Antagonist mode, 10 uM): -14.3%
- activity at 1 µM (168 GPCRs [9]; TACR3, Antagonist, 1 uM): -3.9%
- activity at 10 µM (168 GPCRs [10]; OPRK1, Antagonist mode, 10 uM): 10.4%
- activity at 1 µM (168 GPCRs [10]; OPRK1, Antagonist, 1 uM): 11.8%
- activity at 10 µM (168 GPCRs [11]; VIPR2, Antagonist mode, 10 uM): -2.6%
- activity at 1 µM (168 GPCRs [11]; VIPR2, Antagonist, 1 uM): -1.5%
- activity at 10 µM (168 GPCRs [12]; Antagonist mode, 10 uM): 0.3%
- activity at 1 µM (168 GPCRs [12]; Antagonist, 1 uM): -5.7%
- activity at 1 µM (168 GPCRs [13]; 1 uM): 2.8%
- activity at 10 µM (168 GPCRs [13]; 10 uM): 12.1%
- activity at 10 µM (168 GPCRs [14]; Antagonist mode, 10 uM): 2.5%
- activity at 1 µM (168 GPCRs [14]; Antagonist, 1 uM): 5.3%
- activity at 10 µM (168 GPCRs [15]; Antagonist mode, 10 uM): 1.6%
- activity at 1 µM (168 GPCRs [15]; Antagonist, 1 uM): 9.8%
- activity at 10 µM (168 GPCRs [16]; Antagonist mode, 10 uM): -5.1%
- activity at 1 µM (168 GPCRs [16]; Antagonist, 1 uM): -1%
- activity at 10 µM (168 GPCRs [17]; CX3CR1, Antagonist mode, 10 uM): -6.1%
- activity at 1 µM (168 GPCRs [17]; CX3CR1, Antagonist, 1 uM): -0.2%
- activity at 10 µM (168 GPCRs [18]; MRGPRX1, Antagonist mode, 10 uM): -10.2%
- activity at 1 µM (168 GPCRs [18]; MRGPRX1, Antagonist, 1 uM): -6.5%
- activity at 10 µM (168 GPCRs [19]; GPR92, Antagonist mode, 10 uM): 5.8%
- activity at 1 µM (168 GPCRs [19]; GPR92, Antagonist, 1 uM): -8%
- activity at 10 µM (168 GPCRs [20]; HRH3, Antagonist mode, 10 uM): 5.8%
- activity at 1 µM (168 GPCRs [20]; HRH3, Antagonist, 1 uM): 9.5%
